Data reported in patent US20110152166A1, “METHOD OF MODULATION OF PROTEIN PHOSPHORYLATION-DEPENDENT CONFORMATIONAL TRANSITIONS WITH LOW MOLECULAR WEIGHT COMPOUNDS” (priority 2006, published 2011).
Ends that are not written are not given here.

What was measured:
[1] = target: T1, PDK1 catalytic domain (50-360) (Homo sapiens, UniProt O15530); assay: TNP-ATP/PDK1 fluorescence, conformation of the ATP binding site
T1 construct: the catalytic domain of PDK1 (50-359) produced in SF9 insect cells; His-tag (N, cleaved yes); made in house; host or cells: SF9 insect cells (baculovirus)
Description: FIG. 5—Modulation of PDK1 conformation by phosphopeptides and small compounds. Effect of P-HM-polypeptides and compound 1 on the emission fluorescence of trinitrophenyl-ATP (TNP-ATP)/PDK1. The fluorescence emission spectra from TNP-ATP were recorded in the presence or absence of P-HM-polypeptides, PIFtide and compound 1. (A) Effect of P-HM-RSK (65 μM) on the fluorescence by TNP-ATP. (B) Effect of compound 1 on the fluorescence emission from TNP-ATP. Fluorescence intensities are expressed as %. […] The effect of P-HM-PKB was identical to that by P-HM-RSK.
The activation of PDK1 by P-HM-polypeptides and small compounds is due to a change in the conformation of the enzyme. We probed the conformation of the ATP binding site in PDK1 by scanning the steady-state fluorescence of TNP-ATP/PDK1, in the presence or absence of P-HM-polypeptides, PIFtide, or small molecular weight compounds. Data were obtained in a Varian Cary Eclipse spectrofluorometer (excitation γ=479 nm; emission scanning, γ=500-600 nm; excitation slit=10 nm; emission slit=10 nm) at a rate of 200 nm/min, with 150 datapoints/100 nm scanning and 0.3 s averaging time. […] Non-phosphorylated HM-polypeptides increased the fluorescence intensity of TNP-ATP in the absence of PDK1 and were not used in the study. […]

PDK1 = target: T2, PDK1 (Homo sapiens, UniProt O15530); assay: PDK1 thermal denaturation; conditions: data not shown
T2 sequence (O15530 1-556): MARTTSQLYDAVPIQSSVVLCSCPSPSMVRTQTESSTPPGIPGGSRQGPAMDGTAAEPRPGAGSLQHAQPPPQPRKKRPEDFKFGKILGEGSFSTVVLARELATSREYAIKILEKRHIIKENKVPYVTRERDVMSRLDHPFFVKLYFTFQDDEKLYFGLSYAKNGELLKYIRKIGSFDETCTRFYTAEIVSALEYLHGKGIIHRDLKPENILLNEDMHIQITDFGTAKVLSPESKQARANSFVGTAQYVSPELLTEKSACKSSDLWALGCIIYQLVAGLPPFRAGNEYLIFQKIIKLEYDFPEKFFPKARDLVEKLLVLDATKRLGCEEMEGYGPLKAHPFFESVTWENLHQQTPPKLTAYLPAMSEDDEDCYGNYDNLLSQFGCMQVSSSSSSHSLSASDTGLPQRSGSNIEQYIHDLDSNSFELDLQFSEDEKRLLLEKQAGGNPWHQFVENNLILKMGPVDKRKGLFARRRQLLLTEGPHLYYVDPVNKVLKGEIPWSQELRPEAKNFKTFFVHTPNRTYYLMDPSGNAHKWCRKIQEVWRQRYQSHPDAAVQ

PDK1 50-360 = target: T3, PDK1 50-360 (Homo sapiens, UniProt O15530); assay: Isothermal Titration Calorimetry; type: binding; conditions: ITC
T3 construct: the catalytic domain of PDK1 (50-359) produced in SF9 insect cells; His-tag (pFastbac-HT, TEV site) (N, cleaved yes); made in house; host or cells: Sf9 insect cells (baculovirus, pFastbac-HT)
T3 sequence (O15530 50-359): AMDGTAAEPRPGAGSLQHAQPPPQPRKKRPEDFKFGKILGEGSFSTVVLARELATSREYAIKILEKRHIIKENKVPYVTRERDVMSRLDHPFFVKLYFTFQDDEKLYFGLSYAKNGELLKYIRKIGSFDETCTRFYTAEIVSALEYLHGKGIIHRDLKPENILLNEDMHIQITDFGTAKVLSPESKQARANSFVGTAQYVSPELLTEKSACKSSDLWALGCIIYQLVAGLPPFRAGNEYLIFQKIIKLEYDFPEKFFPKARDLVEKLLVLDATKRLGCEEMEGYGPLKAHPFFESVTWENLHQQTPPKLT
Description: FIG. 8—Characterization of compound 1 interaction with PDK1 50-360 by Isothermal Titration Calorimetry (ITC). Upper panel, raw data of the titration of compound 1 into PDK1 50-360. Lower panel, integrated heats of injection, corrected for the heat of dilution, with the solid line corresponding to the best fit of the data using Origin™ software. The best fit corresponded to a model with one type of sites. […] The calorimetric titration was performed using the VP-ITC instrument from MicroCal Inc. (Northampton, Mass.) as previously described (Schaeffer et al., 2002) with the following modifications. PDK1 and compound 1 were prepared in 50 mM Tris-HCl (pH 7.5), 175 mM NaCl, 1 mM DTT and 3% DMSO. Titration was performed by 30 successive injections (10 μl) of compound 1 (0.9 mM) into a 1.41 ml reaction cell containing PDK1 50-360 ([…]). Raw calorimetric data were corrected for the heat of dilution, and analyzed using the program Origin™ provided by the manufacturer. Binding stoichiometry, enthalpy and equilibrium dissociation constants were determined by fitting corrected data to a model with a single binding site.

Row | effect on TNP-ATP/PDK1 fluorescence (in words) ([1]; 40 μM TNP-ATP, 15 μM PDK1) | Emax ([1]; at 10 times the value of its Kd for PDK1, read-out: maximal effect on TNP-ATP fluorescence intensity) | stabilization of PDK1 to thermal denaturation (in words) (PDK1) | N (binding stoichiometry) (PDK1 50-360) | TΔS (PDK1 50-360) | ΔH (PDK1 50-360) | Kd (PDK1 50-360; one type of sites, pH 7.5, 3% DMSO) | Molecule
1 | decreased the intensity | 65% | – | – | – | – | – | REPRILSEEEQEMFRDFDYIADWC [PIFtide, reference compound]
2 | – | – | did not stabilize | 1.0 ± 0.1 | 4.3 ± 0.2 kcal/mol | −2.1+0.1 kcal·mol^−1 | 18 µM | O=C(O)CSC(CC(=O)c1ccc(Cl)cc1)c1ccccc1 (stereo not shown) [Compound 1]
